Measurements from patent US7517654B2, “Peptide and a derivative thereof promoting cell adhesion and spreading” (Seoul National University Industry Foundation, priority 2004, dated 2009).

B1: rLG5: recombinant His6-tagged LG5 domain, residues 1522-1713 of human laminin α3 chain (protein, listed as Homo sapiens)
chain: SSSFGVSSCLGGPLEKGIYFSEEGGHVVLAHSVLLGPEFKLVFSIRPRSLTGILIHIGSQPGKHLCVYLEAGKVTASMDSGAGGTSTSVTPKQSLCDGQWHSVAVTIKQHILHLELDTDSSYTAGQIPFPPASTQEPLHLGGAPANLTTLRIPVWKSFFGCLRNIHVNHIPVPVTEALEVQGPVSLNGCPDQ
modifications: His6 tag
notes: recombinant His6-tagged LG5 domain, residues 1522-1713 of human laminin α3 chain
B2: rLG4: recombinant His6-tagged LG4 domain, residues 1352-1555 of human laminin α3 chain (protein, listed as Homo sapiens)
chain: DACSPLPKTQANHGALQFGDIPTSHLLFKLPQELLKPRSQFAVDMQTTSSRGLVFHTGTKNSFMALYLSKGRLVFALGTDGKKLRIKSKEKCNDGKWHTVVFGHDGEKGRLVVDGLRAREGSLPGNSTISIRAPVYLGSPPSGKPKSLPTNSFVGCLKNFQLDSKPLYTPSSSFGVSSCLGGPLEKGIYFSEEGGHVVLAHSVL
modifications: His6 tag
notes: recombinant His6-tagged LG4 domain, residues 1352-1555 of human laminin α3 chain

How the values were obtained:
Type in all cases: cell-based, human
FAK = FAK phosphorylation assay (immunoblot, p-FAK/t-FAK); conditions: for FAK phosphorylation level at Tyr-397: peptides 50 μg/60-mm dish
Description: The FAK phosphorylation assays were performed according to a method of Shang et al. (J. Biol. Chem., 276:33045, 2001). In detail, the HOK-16B cells were trypsinized, washed, and kept in suspension in serum-free KGM with 0.1% BSA for 1 h at 37° C. The 60-mm culture dishes were coated with laminin (5 μg/ml) or rLG3 protein (25 μg/ml) at 4° C. overnight. Peptides (50 μg/60-mm culture dish) were also coated on dishes by drying overnight. For the adherent FAK assay, 1×10^6 cells were plated onto uncoated, laminin-coated, rLG3 protein-coated, or various peptide-coated dishes and allowed to attach for 15, 30, or 60 min at 37° C. in an atmosphere of 5% CO2. At the end of the incubation, cells were washed with ice-cold PBS and lysed in RIPA buffer (50 mM Tris [pH 7.4], 150 mM NaCl, 1% Nonidet P-40, 0.5% Na-deoxycholate, 1 mM EDTA, 0.1% SDS, 2 mM Na3VO4, 1 mM glycerol phosphate, 1 mM PMSF, and protease inhibitor cocktail). Lysates were clarified by centrifugation at 12,000×g for 10 min at 4° C. to isolate cytosolic extracts.
The cytosolic extracts were denatured using SDS sample buffer [50 mM Tris-HCl (pH 6.8), 2% SDS, 10% glycerol, 0.1% bromophenol blue, 100 mM β-mercaptoethanol] and separated on an 8% SDS-polyacrylamide gel. Electrophoretic transfer of SDS-PAGE gel separated with protein to a nitrocellulose membrane was followed by immnoblotting with polyclonal anti-FAK antibodies to determine the total FAK level or immnoblotting with polyclonal anti-FAK [pY^397], [pY^407], [pY^576], [pY^577] or [pY^861] antibodies to determine the extent of tyrosine phosphorylation. The relative fold induction of FAK phosphorylation, defined as an increase in FAK phosphorylation of a sample relative to its corresponding background level (i.e., cells plated on plastic) was determined as follows: First, the densitomerty intensity of the phosphorylated FAK (p-FAK) and the total FAK (t-FAK) signals from the Western blots were measured with a LAS-1000plus (Fuji photo film, Japan). The ratio of p-FAK to t-FAK (p-FAK/t-FAK) for each sample was then calculated to correct for differences in protein loading. This ratio was normalized to the p-FAK/t-FAK ratio of the negative controls to obtain the relative fold induction of FAK phosphorylation.
HOK-16B cells isolated by trypsinization were suspended for 1 hr, and kept in suspension (Sus), or replated on 60-mm culture dishes coated with or without laminin (5 μg/ml). The cells were kept for 15, 30, or 60 min for being attached on plates, then cell lysates were analyzed by immunoblot analysis with anti-FAK p-Y397 antibody (Biosource, Camariollo, Calif.). […] This effect was observed within 15 min and peaked at 15 min after exposure to the laminin-coated plate (FIG. 8A).
Therefore, the extent of FAK phosphorylation at Tyr-397,-407,-576, -577, and -861 was investigated in HOK-16B cells cultured on plates coated with laminin (5 μg/ml), rLG3 (25 μg/ml), or peptides P1-P5 (50 μg/60-mm dish) for 15 min. The lysates were immnoblotted with polyclonal anti-FAK, p-Y397, p-Y407, p-Y576, p-Y577 or p-Y861 antibodies (Biosoucce, Camariollo, Calif.), and the total FAK level was detected using anti-FAK antibodies (Upstate Biotechnology, Lake Placid, N.Y. The ratio of p-FAK to t-FAK (p-FAK/t-FAK) for each sample was then calculated to correct for differences in protein loading. This ratio was normalized to the p-FAK/t-FAK ratio of the negative controls (cells on plates) to obtain the relative fold induction of FAK phosphorylation. As a result, the extent of FAK phosphorylation at Tyr-397 cultured on the laminin-coated or rLG3 protein-coated plates increased 16.2- and 8.2-fold compared with the untreated control (FIG. 8B).

HOK-16B cells [1] = assay: Cell spreading activity assay on coated plates; conditions: for cell spreading activity compared to the peptide P4 control: HOK-16B cells, 10 μg/well truncated or Ala-substituted peptide coating, 1 h; for cell spreading activity: HOK-16B cells on rLG protein- or peptide P1-P5-coated plates
Description: To identify spreading cells, attached cells were fixed with 10% formalin in PBS for 15 min, rinsed twice with PBS, and stained with 0.005% crystal violet for 1 h. The plates were then gently rinsed with DDW. To ensure a representative count, each plate was divided into quarters, two fields per quarter were photographed using an Olympus BX51 microscope at 100× magnification. Cells that had adopted a flattened, polygonal shape, with filopodia-and lamellipodia-like extensions were considered to be spreading cells. In contrast, cells that resisted being washed and remained tethered to the plate surface were considered to be non-spreading cells.
To examine the adhesion activity of peptide P4 in detail, the inventors examined whether the adherent cells were tethered to the substratum or spread over the substratum. The BSA and rLG3 were used as the negative control and positive control, respectively, the percentage of cells displaying a spreading morphology was quantified by dividing the number of spreading cells by the total number of bound cells.

HOK-16B cells [2] = assay: Cell adhesion assay on coated plates (crystal violet absorbance at 570 nm / cell counting); conditions: 1 h; for cell adhesion activity compared to the peptide P4 control: HOK-16B cells, 10 μg/well truncated or Ala-substituted peptide coating; for cell adhesion activity of rLG proteins: HOK-16B cells on rLG protein-coated plates, compared to BSA control
Description: The cell adhesion assay was performed according to a method reported by Okazaki et al. (J. Biol. Chem., 277:37070, 2002). In detail, 24-well culture plates (Nunc, Roskilde, Denmark) were coated with various amounts of rLG proteins at 4° C. overnight. The peptides were also coated on plates by drying overnight. The substrate-coated on the plates were blocked by adding 1% heat-inactivated bovine serum albumin (BSA) in PBS for 1 h at 37° C. and washed twice with PBS. The cells in the Experimental Example 1, detached by 0.05% tyrpsin and 0.53 mM EDTA in PBS and resuspended in culture media, were added (1×10^5 cells/500 μl) to each plate and incubated for 1 h at 37° C. After incubation, unattached cells were removed by rinsing twice with PBS. The attached cells were fixed with 10% formalin in PBS for 15 min, rinsed twice with PBS, and stained with 0.5% crystal violet for 1 h. The plates were gently rinsed with DDW three times and lysed with 2% SDS for 5 min. Absorbance was measured at 570 nm in a Bio-Rad Model 550 microplate reader (BioRad).
The cell adhesion and spreading activities on peptide-coated plates were examined using HOK-16B cells by the same method as Experimental Example 2. 24-well plates were coated with 10, 20, 30, 40 and 50 μg/well peptides P1 to P5, respectively. HOK-16B cells were added to peptide-coated plates and cultured for 1 h in serum-free medium for 1 hr. After the unbound cells were washed off, adherent cells were fixed and stained with crystal violet, and then the stained cells were analyzed. Absorbance was measured at 570 nm in a microplate reader. BSA and the rLG3 were used as negative control and positive control, respectively.
It was observed that peptide P4 promotes strong cell adhesion and spreading activities and binds to integrin α3β1 in the Example 4. Therefore, to determine the biologically active core sequences in peptide P4, five synthetic peptides (P4 D-I to P4 D-V), which are C-terminal truncated peptides from the peptide P4, and six synthetic peptides (P4 D-N1 to P4 D-N6), which are N-terminal truncated peptides from the peptide P4 were prepared (FIG. 6A) and examined for HOK-16B cell adhesion and spreading activities on peptide-coated plates by the present inventors. 24-well plates were coated with 10 μg/well C-terminal truncated peptides or N-terminal truncated peptides, and HOK-16B cells were added to the plates, and then cultured in serum-free medium for 1 hr. After the unbound cells were washed off, the adherent cells were fixed to stain with crystal violet, and the stained cells were analyzed. Absorbance was measured at 570 nm in a microplate reader. Peptide P4 and BSA were used as the positive and negative controls, respectively.
24-well plates were coated with 10 μg/well peptides, and HOK-16B cells were added to the plates, and then cultured in serum-free medium for 1 hr. After the unbound cells were washed off, the adherent cells were fixed to stain with crystal violet, and the stained cells were analyzed. Peptide P4 and BSA were used as the positive and negative controls, respectively. The results were expressed as mean ±SD of the four independent experiments.

[3] = HOK-16B cells on coated dishes, laminin 5 μg/ml

Molecule	FAK phosphorylation level at Tyr-397 (FAK; [3])	cell spreading activity compared to the peptide P4 control (HOK-16B cells [1])	cell adhesion activity compared to the peptide P4 control (HOK-16B cells [2])	changes of the FAK phosphorylation levels at Tyr-407, -576 and -861 (FAK; HOK-16B cells on coated dishes, 15 min)	increase of FAK phosphorylation at Tyr-397 compared with the untreated control (FAK; HOK-16B cells, 15 min, laminin 5 μg/ml or rLG3 25 μg/ml coating, p-FAK/t-FAK normalized) [fold]	time of peak FAK phosphorylation at Tyr-397 after exposure to coated plate (FAK; laminin 5 μg/ml, 15, 30 or 60 min tested) [min]	cell spreading activity (HOK-16B cells [1])	cell adhesion activity of rLG proteins (HOK-16B cells [2])
P4-S3: peptide P4 in which Ala substituted for both Lys and Arg (PPFLMLLAGSTA)	significantly decreased	significantly inhibited	significantly inhibited	–	–	–	–	–
laminin [reference compound]	notably higher	–	–	not observed	16.2	15	–	–
P4-S2: peptide P4 in which Ala substituted for Arg (PPFLMLLKGSTA)	significantly decreased	significantly inhibited	significantly inhibited	–	–	–	–	–
B1	–	–	–	–	–	–	minimal cell spreading	marginal adhesion activity
B2	–	–	–	–	–	–	minimal cell spreading	marginal adhesion activity
